Test results from patent US12629359B2 (UNIVERSITA' DEGLI STUDI DI BRESCIA, priority 2020, dated 2026).
“Also recorded” adds a separate entry of the source.

What was measured:
[1] = target: T1, alpha-synuclein/Synapsin III interaction (Homo sapiens, UniProt O14994+P37840); assay: Acceptor photobleaching FRET of alpha-synuclein/Synapsin III interaction in neuronal-differentiated SK-N-SH cells; format: cell-based; settings: 10 μM, 15 min; for stimulation of alpha-synuclein/Synapsin III interaction (FRET efficiency), in words: vs basal
T1 construct: expressed in transfected cells; host or cells: neuronal-differentiated (retinoic acid) human SK-N-SH neuroblastoma cells, transient transfection with Lipofectamine 3000
T1 sequence (O14994 whole entry, one chain of several): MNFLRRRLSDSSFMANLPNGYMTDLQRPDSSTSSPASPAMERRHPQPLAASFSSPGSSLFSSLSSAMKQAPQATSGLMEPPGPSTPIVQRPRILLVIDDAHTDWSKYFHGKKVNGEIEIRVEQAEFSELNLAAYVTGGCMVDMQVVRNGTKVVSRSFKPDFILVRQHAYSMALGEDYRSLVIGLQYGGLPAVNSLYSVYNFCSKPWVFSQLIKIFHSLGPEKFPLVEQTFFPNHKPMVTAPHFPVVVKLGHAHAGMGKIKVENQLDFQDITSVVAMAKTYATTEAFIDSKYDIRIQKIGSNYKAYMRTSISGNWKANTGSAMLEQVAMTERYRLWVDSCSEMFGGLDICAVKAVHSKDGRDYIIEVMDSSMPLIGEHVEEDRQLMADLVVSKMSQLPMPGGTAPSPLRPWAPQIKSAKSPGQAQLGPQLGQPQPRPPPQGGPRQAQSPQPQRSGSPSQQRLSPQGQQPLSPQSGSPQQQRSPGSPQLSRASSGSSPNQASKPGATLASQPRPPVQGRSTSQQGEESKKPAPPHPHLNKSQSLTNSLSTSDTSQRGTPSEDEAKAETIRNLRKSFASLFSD
Procedure: The ability of the different compound to stimulate alpha-synuclein/Synapsin III interaction was evaluated by acceptor photobleaching FRET or FLIM in neuronal-like cells. In particular, we used neuronal-differentiated SK—N—SH neuroblastoma cells transiently transfected with red fluorescent protein (RFP)-tagged human wild type alpha-synuclein and green fluorescent protein (GFP)-tagged the human 63 kDa Synapsin III isoform.
Acceptor photobleaching FRET microscopy allows an accurate evaluation of protein-protein interaction through the measurement of FRET efficiency. This parameter is indicative of the increase of donor fluorescence after complete photobleaching of the acceptor fluorescence, within a FRET pair of fluorophores (where the emission wavelength of a donor falls within the excitation wavelength of an acceptor). Since FRET efficiency is detectable only when the two fluorophores are sufficiently close to ensure that their linked proteins are interacting, the molecular proximity of these latter results strictly dependent on this parameter^36,37. […] Human neuroblastoma SK—N—SH cells were grown in complete medium comprising Dulbecco's modified Eagle's medium with 1000 mg glucose/l supplemented with 10% heat-inactivated fetal bovine serum, 100 μg/ml penicillin and 100 μg/ml streptomycin. Cells were maintained at 37° C. under a humidified atmosphere of 5% CO2 and […]. For FRET studies, SK—N—SH cells were seeded onto poli-D-lysine-coated 13 mm glass coverslips in 24-well plates (15000 cells per coverslip) and were maintained in differentiation medium for ten days by daily adding 10 μM retinoic acid to the medium. […] Fixed cells were analyzed by means of a Zeiss confocal laser microscope LSM 880 (Carl Zeiss) with the laser set on A=488-543. After identifying double positive cells three-to-six regions of interest (ROI) were analyzed for 4 series. Two images of basal condition (Pre-bleaching) were acquired before bleaching the RFP acceptor fluorophore with laser 543 set at 65% power. Then, other two images were acquired after the bleaching (Post-bleaching). The FRET efficiency (intended as the GFP recovery after RFP photobleaching) was measured by using Zen black software (Carl Zeiss). The average intensity of the background (outside the cell) was subtracted from the average intensity of the ROI and all the FRET values resulting from the different ROI were used for statistical analysis.
Human neuroblastoma SK—N—SH cells were grown in complete medium comprising Dulbecco's modified Eagle's medium with 1000 mg glucose/l supplemented with 10% heat-inactivated fetal bovine serum, 100 μg/ml penicillin and 100 μg/ml streptomycin. Cells were maintained at 37° C. under a humidified atmosphere of 5% CO2 and […]. For FRET studies, SK—N—SH cells were seeded onto poli-D-lysine-coated 13 mm glass coverslips in 24-well plates (15000 cells per coverslip) and were maintained in differentiation medium for ten days by daily adding 10 μM retinoic acid to the medium. […] Fixed cells were analyzed by means of a Zeiss confocal laser microscope LSM 880 (Carl Zeiss) with the laser set on λ=488-543. After identifying double positive cells three-to-six regions of interest (ROI) were analyzed for 4 series. Two images of basal condition (Pre-bleaching) were acquired before bleaching the RFP acceptor fluorophore with laser 543 set at 65% power. Then, other two images were acquired after the bleaching (Post-bleaching). The FRET efficiency (intended as the GFP recovery after RFP photobleaching) was measured by using Zen black software (Carl Zeiss). The average intensity of the background (outside the cell) was subtracted from the average intensity of the ROI and all the FRET values resulting from the different ROI were used for statistical analysis.

SYN120 tg mice [2] = assay: Open-field motility after acute i.p. injection in SYN120 tg mice; format: in vivo, mouse; settings: acute i.p. 10 mg/kg, 12 month-old SYN120 tg mice
Excerpt: We investigated the ability of compound I-threo to stimulate the motility of Parkinson's disease mice more efficiently that MPH. […] All experiments were made in accordance with Directive 2010/63/EU of the European Parliament and of the Council of 22 Sep. 2010 on the protection of animals used. All experimental procedures conformed to the National Research Guide for the Care and Use of Laboratory Animals and were approved by the Animal Research Committees of the University of Brescia (Protocol Permit 719/2015-PR). Three different groups of 12 month-old SYN120 tg mice (N=3 animals per group) were used for the motility assay by using the open-field behavioural paradigm. The motility of the animals in the open-field arena was registered and analysed by using the Any-Maze system. […] The total distance travelled by the mice during 2.5 minutes intervals was plotted on graphs.

SYN120 tg mice [3] = assay: Immunohistochemistry of nigrostriatal alpha-synuclein deposition and striatal dopaminergic fibers after chronic treatment of SYN120 tg mice; format: in vivo, mouse; settings: daily i.p. 5 mg/kg for 6 weeks
Excerpt: After the behavioral studies animals were sacrificed by transcardiac perfusion to collect their brains, which were used for immunohistochemical studies aimed at evaluating the efficacy of compound I-threo to reduce pathological alpha-synuclein deposition and neuroprotection in the nigrostriatal system.
First, we quantified aggregated alpha-synuclein pathological deposition by using an antibody specifically recognizing aggregated alpha-synuclein in the subtantia nigra and striatum of mice.
Then alpha-synuclein aggregation was evaluated also by using Thioflavin-S a dye recognizing fibrillary aggregates. […] Please note that dopaminergic neurons or fibers in the images were labelled in light blue.
Finally, we evaluated the neuroprotective effect of the chronic treatment with compound I-threo by quantifying the recovery of striatal dopaminergic fibers in the SYN120 tg mice treated with the compound when compared to the vehicle-treated animals.

SYN120 tg mice [4] = assay: Open-field motility after chronic 6 weeks treatment in SYN120 tg mice; format: in vivo, mouse; settings: daily i.p. 5 mg/kg for 6 weeks, vs vehicle
Procedure: Two groups of 12 month-old SYN120 tg mice (N=4 animals per group) were subjected to daily i.p. administration of either vehicle or compound I-threo (5 mg/kg) for 6 weeks. All experiments were made in accordance with Directive 2010/63/EU of the European Parliament and of the Council of 22 Sep. 2010 on the protection of animals used. All experimental or surgical procedures conformed to the National Research Guide for the Care and Use of Laboratory Animals and were approved by the Animal Research Committees of the University of Brescia (Protocol Permit 719/2015-PR). At the end of treatment, the total distance travelled by the mice was recorded in the open field arena. […] Student's t-test. N=3 for each experimental group.

[5] = system: alpha-synuclein aggregation in primary mesencephalic neurons; assay: Alpha-synuclein aggregation in primary mouse midbrain neurons exposed to glucose deprivation; format: cell-based

Structure (SMILES) | stimulation of alpha-synuclein/Synapsin III interaction (FRET efficiency), in words [1] | motility (total distance travelled) in open field arena (SYN120 tg mice [2]) | Thioflavin-S signal in substantia nigra and striatum (SYN120 tg mice [3]) | aggregated alpha-synuclein in substantia nigra and striatum (SYN120 tg mice [3]; vs vehicle) | striatal TH-positive dopaminergic fibers (SYN120 tg mice [3]; vs vehicle) | % FRET efficiency change vs control untreated cells ([1]; neuronally differentiated SK-N-SH cells) | % FRET efficiency change vs MPH-treated cells ([1]; vs MPH 10 μM) | % FRET efficiency change vs VI-threo-treated cells ([1]; vs VI-threo 10 μM) | total motility (total distance travelled) in open field (SYN120 tg mice [4]) | alpha-synuclein inclusion formation (total immunofluorescence intensity and particle size) ([5]; I-threo, VI-threo 50 and 100 nM, MPH 100 nM, hydrochloride) | efficiency higher than that of MPH ([5]; primary neurons)
COC(=O)[C@H](c1ccc(C)cc1)C1CCCCN1.Cl (stereo partly drawn) [I-erythro] | not able to stimulate alpha-synuclein/Synapsin III interaction; also recorded: No significant increase |  |  |  |  |  |  |  |  |  | 
COC(=O)[C@@H](c1ccc(C)cc1)C1CCCCN1.Cl (stereo partly drawn) [I-threo, threo methyl 2-(piperidin-2-yl)-2-(p-tolyl)acetate hydrochloride] | significant increase in the FRET efficiency | improve the motility of SYN120 tg mice more efficiently than MPH | marked reduction of thioflavin-S signal | statistically significant reduction of aggregated alpha-synuclein | significant recovery of striatal TH-positive dopaminergic fibers | +8.8% | +5.5% | +5.2% | significant improvement in total motility | significantly reduce alpha-synuclein inclusion formation; also recorded: efficiently hinders alpha-synuclein aggregation | 50-70%
